From PMC9820345, “Metal Complexes of a 5-Nitro-8-Hydroxyquinoline-Proline Hybrid with Enhanced Water Solubility Targeting Multidrug Resistant Cancer Cells” (International Journal of Molecular Sciences, 2022)
Read-outs that look alike come from different tables or passages of the source.

What was measured:
[1] = Proton dissociation constants (pKa) of the ligand by pH-potentiometric, UV-vis and 1H NMR titrations; type: physicochemical; settings: for pKa: 25.0 °C
Experimental: Characterization of the protonation/deprotonation equilibrium processes of a bioactive molecule is important to reveal its actual chemical form and charge at a given pH. The proton dissociation constant (Ka) is a key physico-chemical parameter since it has an impact on many biopharmaceutical characteristics such as lipophilicity, water solubility, and albumin binding, which in turn directly influences pharmacokinetics. The pKa values of the protonated HQNO2-L-Pro were determined by pH-potentiometric, UV-vis (Figure 1a), and ^1H NMR spectroscopic titrations (Table 1).
The pH-potentiometric measurements were carried out at 25.0 ± 0.1 °C in water in the pH range between 2.0 and 11.5 at a constant ionic strength of 0.2 M KNO3. The titrations were performed in a carbonate-free KOH solution (0.20 or 0.10 M). The exact concentrations of HNO3, HCl, and KOH solutions were always determined by pH-potentiometric titrations. An Orion 710A pH-meter equipped with a Metrohm combined electrode (type 6.0234.100) and a Metrohm 665 Dosimat burette were used for the measurements. […] The average water ionization constant (pKw) was determined as 13.76 ± 0.01, which is in good agreement with the literature data. In the case of the titrations in 30% (v/v) DMSO/H2O, the calibration of the pH-potentiometric system was conducted as in our former works. Samples were degassed by bubbling purified argon through them for about 10 min prior to the measurements, and the inert gas was also passed over the solutions during the titrations. Stoichiometry of the species and their equilibrium constants were obtained similarly to that performed in our previous works, with the use of computer program Hyperquad2013 [50].
An Agilent Cary 8454 diode array spectrophotometer (Santa Clara, CA, USA) was used to obtain UV-vis spectra in the wavelength range 200–1000 nm, while spectra were recorded for the Fe(II)-containing samples using an Avantes (Avantes B.V., Apeldoorn, The Nederlands) AvaSpec-ULS2048CL-EVO spectrometer with an AvaLight-DHc light source and FDP-7UVIR200-2-VAR transmission dip probe. The titrations for the Fe(II)-containing samples were performed in a laboratory glove box (GP(Campus), Jacomex) (O2 content ≤ 1 ppm). The path length (ℓ) was 1 cm in most cases (the actual ℓ is always indicated in the legends of the figures). The concentrations of the ligands and complexes were between 40 and 200 µM, and 0.2 M KNO3 for the organometallic complexes or 0.1 M KCl for the Fe(II/III), Cu(II), and Zn(II) complexes were used to adjust the constant ionic strength. For HSA containing samples, complex concentrations were 50 µM, and 0.5, and 2 equiv. biomolecules were added for kinetic studies, respectively. For HSA model containing samples, complex concentrations were 50 µM, and the model concentrations were 0–150 µM and 0–500 µM, respectively, and the pH was 7.4 (PBS’). Spectra were always background and baseline corrected. The computer program HypSpec was used to obtain stability constants. Hydrolysis constants of the Fe(III), Fe(II), RuCym, and RhCp* species were included in the speciation models (see Table S4 with the data taken from References).
The Bruker Avance III HD Ascend 500 Plus instrument (Billerica, MA, USA) was used for NMR studies. ^1H NMR spectroscopic measurements were carried out with a WATERGATE water suppression pulse scheme in the presence of 10% (v/v) D2O/H2O in most cases. DSS internal standard was added to samples to obtain reference peaks. ^1H NMR titrations were carried out for the ligand alone, and for the organometallic complexes in the presence of 0.2 M KNO3. With the AHA and FHA model peptides, the measurements were performed at pH 7.4 (PBS’) at 0.5 or 1 mM metal complex concentrations, and 1:1, 1:2 or 2:1 peptide-to-metal complex ratios were applied. NMR titrations were also performed for the Zn(II)-ligand systems using 0.1 M KCl ionic strength. […]

[2] = system: tested cancer cell lines (MES-SA, MES-SA/Dx5, Colo205, Colo320); assay: In vitro cytotoxicity, summary over the tested cancer cell lines; type: cell-based; settings: Homo sapiens, range over MES-SA
Experimental: The in vitro cytotoxicity of HQNO2-L-Pro and its RuCym and RhCp* complexes was assayed in two chemosensitive and resistant cell pairs to reveal their potential MDR selective toxicity. On the one hand, the parental human uterine sarcoma MES-SA cell line and its P-gp positive MDR derivative MES-SA/Dx5 cell line were applied; on the other hand, the human colon adenocarcinoma Colo205 cell line and its doxorubicin-resistant counterpart, the Colo320 cell line, were involved. The determined IC50 values using 72 h (Colo205 and Colo320) or 144 h incubation time (MES-SA and MES-SA/Dx5) are shown in Table 4. Doxorubicin was used as a control, and IC50 values obtained for the analogous HQCl-L-Pro compounds are also shown for comparison. […] The lower cytotoxicity of HQNO2-L-Pro is most likely due to its very strong hydrophilic features.
Inhibition of the cell growth (expressed as IC50: inhibitory concentration that reduces by 50% the growth of the cells exposed to the tested compounds) was determined from the sigmoid curve where 100 − ((ODsample − ODmedium control)/(ODcell control − ODmedium control)) × 100 values were plotted against the logarithm of compound concentrations. […]

HSA = target: T1, HSA (Homo sapiens, UniProt P02768); assay: Time course of complex-HSA interaction (UV-vis); type: binding; settings: complex–HSA (1:1 or 2:1); pH 7.4
T1 construct: purchased Sigma-Aldrich (Darmstadt, Germany) A8763
Experimental: First, changes in the UV-vis spectra were followed in time in the complex—HSA (1:1 or 2:1) system, and it was concluded that the equilibrium can be reached within ca. 30 min for the RhCp* complex (Figure S25). […] The binding of the RuCym complex to HSA without the release of the bidentate ligand was also confirmed by CZE measurement (Figure S27). Most likely a donor atom of the protein binds at the coordination site of the co-ligand.
An Agilent Cary 8454 diode array spectrophotometer (Santa Clara, CA, USA) was used to obtain UV-vis spectra in the wavelength range 200–1000 nm, while spectra were recorded for the Fe(II)-containing samples using an Avantes (Avantes B.V., Apeldoorn, The Nederlands) AvaSpec-ULS2048CL-EVO spectrometer with an AvaLight-DHc light source and FDP-7UVIR200-2-VAR transmission dip probe. The titrations for the Fe(II)-containing samples were performed in a laboratory glove box (GP(Campus), Jacomex) (O2 content ≤ 1 ppm). The path length (ℓ) was 1 cm in most cases (the actual ℓ is always indicated in the legends of the figures). The concentrations of the ligands and complexes were between 40 and 200 µM, and 0.2 M KNO3 for the organometallic complexes or 0.1 M KCl for the Fe(II/III), Cu(II), and Zn(II) complexes were used to adjust the constant ionic strength. […]

T1 sequence (P02768 25-609): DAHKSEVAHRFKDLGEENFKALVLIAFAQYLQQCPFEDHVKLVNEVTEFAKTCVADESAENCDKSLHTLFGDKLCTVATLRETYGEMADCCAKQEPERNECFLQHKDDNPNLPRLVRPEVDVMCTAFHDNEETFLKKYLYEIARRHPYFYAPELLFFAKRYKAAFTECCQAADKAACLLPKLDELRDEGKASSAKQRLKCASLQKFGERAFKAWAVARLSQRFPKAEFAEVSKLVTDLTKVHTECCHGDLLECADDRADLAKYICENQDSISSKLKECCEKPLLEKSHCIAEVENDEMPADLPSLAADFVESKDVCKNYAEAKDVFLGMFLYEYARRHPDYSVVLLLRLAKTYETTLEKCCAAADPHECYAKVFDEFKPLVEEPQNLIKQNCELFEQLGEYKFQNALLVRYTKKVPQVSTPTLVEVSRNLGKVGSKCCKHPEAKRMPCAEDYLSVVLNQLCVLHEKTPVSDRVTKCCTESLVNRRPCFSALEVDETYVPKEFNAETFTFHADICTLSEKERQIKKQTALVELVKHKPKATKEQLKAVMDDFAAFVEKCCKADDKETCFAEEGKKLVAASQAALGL

Row | pKa ([1]; 0.10 M KCl, UV-vis, I = 0.10 M KCl, cligand 40 μM, read-out: pKa (NProH+)) | pKa ([1]; 0.10 M KCl, UV-vis, I = 0.10 M KCl, cligand 40 μM, read-out: pKa (OH)) | pKa ([1]; 0.20 M KNO3, 1H NMR, I = 0.20 M KNO3, cligand 1000 μM, read-out: pKa (NProH+)) | pKa ([1]; 0.20 M KNO3, 1H NMR, I = 0.20 M KNO3, cligand 1000 μM, read-out: pKa (OH)) | pKa ([1]; 0.20 M KNO3, UV-vis, I = 0.20 M KNO3, cligand 40 μM, read-out: pKa (NProH+)) | pKa ([1]; 0.20 M KNO3, UV-vis, I = 0.20 M KNO3, cligand 40 μM, read-out: pKa (OH)) | fraction of H2L ([1]; pH 5.5) | fraction of HL− ([1]; pH 5.5) | pKa ([1]; water, 0.20 M KNO3, pH-potentiometry, I = 0.20 M KNO3, cligand 1700 μM, read-out: pKa (NProH+)) | pKa ([1]; water, 0.20 M KNO3, pH-potentiometry, I = 0.20 M KNO3, cligand 1700 μM, read-out: pKa (OH)) | time to reach equilibrium with HSA (HSA) | Structure (SMILES) | IC50 [2]
1 | 10.75 ± 0.03 | 5.43 ± 0.03 | > 10.5 | 5.56 ± 0.03 | 10.78 ± 0.03 | 5.5 ± 0.03 | 47% | 53% | 10.68 ± 0.07 | 5.57 ± 0.09 |  | O=C(O)[C@@H]1CCCN1Cc1cc([N+](=O)[O-])c2cccnc2c1O [HQNO2-L-Pro, (2S)-1-((8-hydroxy-5-nitroquinolin-7-yl)methyl)pyrrolidin-1-ium-2-carboxylate] | 32.4 to 226 µM
2 |  |  |  |  |  |  |  |  |  |  | ≤ 30 min | CC1=C(C)[C](C)([Rh]([Cl])[O]c2c(C[NH+]3CCC[C@H]3C(=O)O)cc([N+](=O)[O-])c3cccnc23)C(C)=C1C.[Cl-] [RhCp*-HQNO2-L-Pro, [RhCp*(HQNO2-L-Pro)Cl]Cl] | 
